{"source": "patent US20030055007A1", "about": "“Antimicrobial agents” (priority 2001, published 2003)", "key": {"[1]": {"test_system": "AIDS virus (HIV-1, HIV-2)", "experiment": "Complete inhibitory activity against AIDS virus, MT-4 cells, 12-well microplate, 3- and 6-day culture", "format": "cell-based", "details": "for lowest sample concentration (circle-marked well) at which AIDS virus growth was inhibited completely (100%): MT-4 cells, 2-fold dilutions from 1000 μg/ml"}, "[2]": {"test_system": "MT-4 cells"}, "[3]": {"test_system": "Influenza virus A/Hokkaidou/1/96 (H1N1)", "experiment": "organism not typed", "format": "cell-based", "details": "for MIC: read-out: Minimum inhibitory concentration (MIC)"}, "[4]": {"test_system": "influenza virus (H1N1, H3N2, Type B)", "format": "cell-based"}, "[5]": {"test_system": "S. aureus", "experiment": "Antibacterial activity test (2), dilution on agar culture medium", "format": "cell-based", "details": "30° C., 17 hours, 1:40 = 2 mg/ml, <40-fold = no complete inhibition at 1:40", "experimental": "Aqueous solutions of each specimen (powders) at a concentration of 8% was diluted 1:40 as the specimen stock solution for MIC measurement. The stock solution diluted at a graduation ratio of 1:40 to 1:400 and the stock solution were added to the agar culture medium on which 6 test […] were inoculated, and incubated at 30° C. for 17 hours. Growth inhibition bands were examined on the agar culture medium. The specimen stock solution was prepared by diluting 25 ml of 8% solution with 1000 cc of distilled water(1:40 dilution), which is converted into the amount per 2 mg/ml by solid content.\nHowever, the remaining samples that were indicative of “<40-fold (lower than the 1:40 dilution)” were proven to have a certain degree of inhibitory effects. They are expected to show the complete inhibitory effects against the bacterial growth, by increasing the concentration level. As a consequence, the samples, 5, 6, 11-14 were recognized to have sufficient useful antibacterial activity."}, "[6]": {"test_system": "K. pneumoniae", "experiment": "Antibacterial activity test (2), dilution on agar culture medium", "format": "cell-based", "details": "30° C., 17 hours, 1:40 = 2 mg/ml, <40-fold = no complete inhibition at 1:40"}, "[7]": {"test_system": "Influenza virus A/Hokkaidou/1/97 (H3N2)", "experiment": "organism not typed", "format": "cell-based", "details": "for MIC: read-out: Minimum inhibitory concentration (MIC)"}, "[8]": {"test_system": "B. subtilis", "experiment": "Antibacterial activity test (2), dilution on agar culture medium", "format": "cell-based", "details": "30° C., 17 hours, 1:40 = 2 mg/ml, <40-fold = no complete inhibition at 1:40"}, "[9]": {"test_system": "P. aerginos", "experiment": "Antibacterial activity test (2), dilution on agar culture medium", "format": "cell-based", "details": "30° C., 17 hours, 1:40 = 2 mg/ml, <40-fold = no complete inhibition at 1:40"}, "[10]": {"test_system": "S. Enteritidis", "experiment": "Antibacterial activity test (2), dilution on agar culture medium", "format": "cell-based", "details": "30° C., 17 hours, 1:40 = 2 mg/ml, <40-fold = no complete inhibition at 1:40"}, "[11]": {"test_system": "Influenza virus B/Hokkaidou/1/97", "experiment": "microbe, parasite or virus in culture", "format": "cell-based", "details": "for MIC: unidentified influenza virus, read-out: Minimum inhibitory concentration (MIC)"}, "[12]": {"test_system": "E. coli O157", "format": "cell-based", "details": "30° C., 17 hours, 1:40 = 2 mg/ml, <40-fold = no complete inhibition at 1:40"}, "[13]": {"test_system": "MT-4 cells", "experiment": "Cell damage caused by the sample in the AIDS virus microplate test", "details": "for cell damage / cytotoxicity (in words): AIDS virus test"}, "[14]": {"details": "oral; cited from earlier work"}, "[15]": {"test_system": "influenza virus", "details": "in vivo, po"}, "[16]": {"test_system": "MDCK cells"}, "[17]": {"details": "H1N1, liquid samples, stock 10 μl/ml guaiacol, 2 μl/ml 2,6-dimethoxyphenol"}, "[18]": {"details": "H3N2, stock 10 mg/ml, read when virus multiplied to 100 TCID (3-4 days)"}, "[19]": {"details": "H1N1, stock 10 mg/ml, read when virus multiplied to 100 TCID (3-4 days)"}}, "note": "Read-outs that look alike come from different tables or passages of the source."}
{"molecule": "COc1cc(C(O)C(CO)Oc2c(OC)cccc2OC)cc(OC)c1O", "note": "(stereo not drawn) [SOS, syringylglycerol-β-syringyl ether, reference compound]", "values": [{"measurement": "viral (inhibitory) activity against AIDS virus", "setting": "[1]; 3rd day of culture", "result": 15.6, "unit": "μl/ml"}, {"measurement": "cell damage", "setting": "[2]", "result": 31.3, "unit": "μl/ml"}]}
{"molecule": "COc1cccc(OC)c1O", "note": "[sample 3, 2,6-dimethoxyphenol]", "values": [{"measurement": "Minimum inhibitory concentration (MIC)", "setting": "[3]; [17]", "result": "> 1.0", "unit": "μl/ml"}, {"measurement": "lowest sample concentration (circle-marked well) at which AIDS virus growth was inhibited completely (100%)", "setting": "[1]; 3-day culture", "result": "◯ (31.3) μg/ml"}, {"measurement": "lowest sample concentration (circle-marked well) at which AIDS virus growth was inhibited completely (100%)", "setting": "[1]; 6-day culture", "result": "◯ (31.3) μg/ml"}, {"measurement": "effect against influenza virus (in words)", "setting": "[4]", "result": "not effective"}]}
{"molecule": "COc1cc(C(O)C(CO)Oc2ccccc2OC)ccc1OCc1ccccc1", "note": "(stereo not drawn) [sample 12, 4-benzyloxyguaiacylglycerol-β-guaiacylether]", "values": [{"measurement": "dilution of 8% solution giving complete growth inhibition", "setting": "[5]", "result": "<40-fold"}, {"measurement": "dilution of 8% solution giving complete growth inhibition", "setting": "[6]", "result": "<40-fold"}, {"measurement": "Minimum inhibitory concentration (MIC)", "setting": "[7]; [18]", "result": 2.5, "unit": "mg/mL"}, {"measurement": "Minimum inhibitory concentration (MIC)", "setting": "[3]; [19]", "result": 8.0, "unit": "mg/mL"}, {"measurement": "viral (inhibitory) activity against AIDS virus", "setting": "[1]; 6th day of culture", "result": 125, "unit": "μl/ml"}, {"measurement": "dilution of 8% solution giving complete growth inhibition", "setting": "[8]", "result": "<40-fold"}, {"measurement": "dilution of 8% solution giving complete growth inhibition", "setting": "[9]", "result": "<40-fold"}, {"measurement": "dilution of 8% solution giving complete growth inhibition", "setting": "[10]", "result": "<40-fold"}, {"measurement": "Minimum inhibitory concentration (MIC)", "setting": "[11]", "result": 2.5, "unit": "mg/mL"}, {"measurement": "dilution of 8% solution giving complete growth inhibition", "setting": "[12]", "result": "<40-fold"}]}
{"molecule": "COc1ccccc1O", "note": "[sample 1, Guaiacol]", "values": [{"measurement": "concentration up to which cell damage was observed", "setting": "[13]; 3-day incubation", "result": 250, "unit": "µg/mL"}, {"measurement": "concentration up to which cell damage was observed", "setting": "[13]; 6-day incubation", "result": 250, "unit": "µg/mL"}, {"measurement": "Minimum inhibitory concentration (MIC)", "setting": "[7]; H3N2, liquid samples, stock 10 μl/ml guaiacol, 2 μl/ml 2,6-dimethoxyphenol", "result": 1.9, "unit": "μl/ml"}, {"measurement": "Minimum inhibitory concentration (MIC)", "setting": "[3]; [17]", "result": 3.8, "unit": "μl/ml"}, {"measurement": "toxicity level in a human (ORL-HMN)", "setting": "[14]", "result": 43, "unit": "mg/kg"}, {"measurement": "lowest sample concentration (circle-marked well) at which AIDS virus growth was inhibited completely (100%)", "setting": "[1]; 3-day culture", "result": "◯ (31.3) μg/ml"}, {"measurement": "lowest sample concentration (circle-marked well) at which AIDS virus growth was inhibited completely (100%)", "setting": "[1]; 3-day culture, listed as guaiacol", "result": 31.3, "unit": "µg/mL"}, {"measurement": "lowest sample concentration (circle-marked well) at which AIDS virus growth was inhibited completely (100%)", "setting": "[1]; 6-day culture", "result": "◯ (125) μg/ml"}, {"measurement": "lowest sample concentration (circle-marked well) at which AIDS virus growth was inhibited completely (100%)", "setting": "[1]; 6-day culture, listed as guaiacol", "result": 125, "unit": "µg/mL"}, {"measurement": "Minimum inhibitory concentration (MIC)", "setting": "[11]; Type B, liquid samples, stock 10 μl/ml guaiacol, 2 μl/ml 2,6-dimethoxyphenol", "result": 3.8, "unit": "μl/ml"}]}
{"molecule": "Lignosulfonic acid sodium salt acetate [sample 6]", "values": [{"measurement": "side effects", "setting": "[15]", "result": "not seen"}, {"measurement": "cell damage", "setting": "[16]", "result": "not seen"}]}
{"molecule": "COc1cc(S(=O)(=O)[O-])ccc1O.COc1cc(S(=O)(=O)[O-])ccc1O.O.[K+].[K+]", "note": "[guaiacol-4-sulfonate potassium salt 0.5-hydrate, reference compound]", "values": [{"measurement": "cell damage / cytotoxicity (in words)", "setting": "[13]", "result": "caused cell damage"}, {"measurement": "anti-AIDS virus activity (in words)", "setting": "[1]; cell-level test", "result": "not to possess effective anti-AIDS virus activity"}]}
{"molecule": "COc1cc(O)cc(OC)c1", "note": "[sample 4, 3,5-dimethoxyphenol]", "values": [{"measurement": "well up to which cell damage was observed", "setting": "[13]; 6-day incubation, well number", "result": "3 (250)"}, {"measurement": "cell damage when 3,4-dimethoxyphenol was added to the sample", "setting": "[13]; ratio of 1:1, anti-viral effect not reduced", "result": "only in the first well"}, {"measurement": "MIC", "setting": "[7]; [18]", "result": 1900, "unit": "µg/mL"}, {"measurement": "MIC", "setting": "[3]; [19]", "result": 5000, "unit": "µg/mL"}, {"measurement": "lowest sample concentration (circle-marked well) at which AIDS virus growth was inhibited completely (100%)", "setting": "[1]; 3-day culture", "result": "◯ (125) μg/ml"}, {"measurement": "lowest sample concentration (circle-marked well) at which AIDS virus growth was inhibited completely (100%)", "setting": "[1]; 6-day culture", "result": "◯ (125) μg/ml"}, {"measurement": "lowest sample concentration (circle-marked well) at which AIDS virus growth was inhibited completely (100%)", "setting": "[1]; 6-day culture, listed as 3,5-dimethoxyphenol", "result": 125, "unit": "µg/mL"}, {"measurement": "MIC", "setting": "[11]; Type B, stock 10 mg/ml, read when virus multiplied to 100 TCID (3-4 days)", "result": 3800, "unit": "µg/mL"}]}
{"molecule": "COc1cc(C=O)cc(OC)c1O", "note": "[sample 13, Syringaldehyde]", "values": [{"measurement": "dilution of 8% solution giving complete growth inhibition", "setting": "[5]", "result": "<40-fold"}, {"measurement": "dilution of 8% solution giving complete growth inhibition", "setting": "[6]", "result": "<40-fold"}, {"measurement": "cell damage / cytotoxicity (in words)", "setting": "[13]", "result": "severe cell damage"}, {"measurement": "MIC", "setting": "[7]", "result": 1900, "unit": "µg/mL"}, {"measurement": "MIC", "setting": "[3]", "result": 3800, "unit": "µg/mL"}, {"measurement": "lowest sample concentration (circle-marked well) at which AIDS virus growth was inhibited completely (100%)", "setting": "[1]; 6-day culture", "result": 3.91, "unit": "µg/mL"}, {"measurement": "dilution of 8% solution giving complete growth inhibition", "setting": "[8]", "result": "<40-fold"}, {"measurement": "dilution of 8% solution giving complete growth inhibition", "setting": "[9]", "result": "<40-fold"}, {"measurement": "dilution of 8% solution giving complete growth inhibition", "setting": "[10]", "result": "<40", "unit": "fold"}, {"measurement": "MIC", "setting": "[11]", "result": 3800, "unit": "µg/mL"}, {"measurement": "dilution of 8% solution giving complete growth inhibition", "setting": "[12]", "result": "<40-fold"}]}
{"molecule": "Lignosulfonic acid sodium salt [sample 5]", "values": [{"measurement": "cell damage", "setting": "[16]", "result": "not seen"}]}
